Laboratory results reported in ChEMBL document CHEMBL1131885, “Acyclic structural variants of growth hormone secretagogue L-692,429” (1999).
Calls of active or inactive are those of the source. The calls are words filed in the database; no cut-off is given here.

Assays:
[1] = organism: Rattus norvegicus; test: In vitro growth hormone release in rat pituitary cells assay was determined; type: functional; settings: Pituitary gland cell, read-out: ED50 (the source's name)
[2] = organism: Rattus norvegicus; test: In vitro growth hormone release in rat pituitary cells assay was determined; IA means inactive; type: functional, cell-based; settings: Pituitary gland cell

SMILES | EC50 [1] | ED50 [2]
CCN(Cc1ccc(-c2ccccc2-c2nn[nH]n2)cc1)C(=O)[C@@H](CCc1ccccc1)NC(=O)C(C)(C)N | > 500 nM | –
CN(Cc1ccc(-c2ccccc2-c2nn[nH]n2)cc1)C(=O)[C@@H](CCc1ccccc1)NC(=O)CC(C)(C)N | > 300 nM | –
CN(C(=O)[C@@H](CCc1ccccc1)NC(=O)C(C)(C)N)c1ccc(-c2ccccc2-c2nn[nH]n2)cc1 | 300 nM | –
CC(C)(N)CC(=O)N[C@H](COCc1ccccc1)C(=O)NCc1ccc(-c2ccccc2-c2nn[nH]n2)cc1 | > 1000 nM | –
CC(C)(N)CC(=O)N[C@H](Cc1ccccc1)C(=O)NCc1ccc(-c2ccccc2-c2nn[nH]n2)cc1 | 11000 nM | –
CN(Cc1ccc(-c2ccccc2-c2nn[nH]n2)cc1)C(=O)[C@@H](CCc1ccccc1)NC(=O)CCC(C)(C)N | > 300 nM | –
CN(Cc1ccc(-c2ccccc2-c2nn[nH]n2)cc1)C(=O)[C@@H](CCc1ccccc1)NC(=O)C(C)(C)N | 30 nM | –
CC(C)(N)CC(=O)N[C@@H]1CCc2ccccc2N(Cc2ccc(-c3ccccc3-c3nn[nH]n3)cc2)C1=O | 60 nM | –
C[C@@H](NC(=O)CC(C)(C)N)C(=O)NCc1ccc(-c2ccccc2-c2nn[nH]n2)cc1 | – | inactive
CC[C@@H](NC(=O)CC(C)(C)N)C(=O)N(Cc1ccc(-c2ccccc2-c2nn[nH]n2)cc1)c1ccccc1 | 11000 nM | –
CC(C)(N)CC(=O)NCC(=O)NCc1ccc(-c2ccccc2-c2nn[nH]n2)cc1 | – | inactive
CC(C)(N)CC(=O)N[C@H](CCc1ccccc1)C(=O)NCc1ccc(-c2ccccc2-c2nn[nH]n2)cc1 | 200 nM | –
CC(C)(N)CC(=O)N[C@H](Cc1c[nH]c2ccccc12)C(=O)NCc1ccc(-c2ccccc2-c2nn[nH]n2)cc1 | 400 nM | –
CC(C)N(Cc1ccc(-c2ccccc2-c2nn[nH]n2)cc1)C(=O)[C@@H](CCc1ccccc1)NC(=O)C(C)(C)N | > 500 nM | –
